One assay concerns the target AT2 receptor (Homo sapiens (Human), UniProt P50052). Briefly: AT2 Receptor Binding. The note with it: HEK293 AT2 receptor transient cell membranes, [125I]-CGP42112A. Put shortly:
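Membranes from HEK293 cells transiently transfected with AT2 receptor (48 h) used in binding buffer of 50 mM Hepes pH 7.4, 5 mM MgCl2, 1 mM CaCl2, 0.2% BSA. Compounds tested in half-log dilutions from a 100 μM top working concentration in 2% DMSO.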

The next assay deals with AT1 receptor (Homo sapiens (Human), UniProt P30556). Briefly: AT1 Receptor Binding. The note with it: HEK293/AT1 receptor transient cell membranes, [125I]-Sar1-Ile8-Angiotensin II; top concentration tested 10 μM. From the text: The same media, solutions, cell procedures and compound preparation was used as for Biological Example 1 but using HEK293/AT1 Receptor Transient Cells.

Another assay has as its system NG108-15 neurite cells. Briefly: AT2 Receptor Neurite Outgrowth Assay. Type of assay: cell-based. Particulars: NG108-15 cells, in the presence of angiotensin II 0.1 μM, compound 0.003-10 μM. The protocol:
The general methodology of Wallinder (2008) and references cited therein was used to assess the effect of the compounds of the present invention on neurite outgrowth. The assay was adapted for high content screening.
EMA1087 is a known AT2 receptor agonist described as “compound 21” in Wan et al. 2004. PD-123,319 is a known, commercially available AT2 receptor antagonist. The results were analyzed by immunofluorescence quantitative analysis. Neurite outgrowth was quantified with neurite average length using Cellomics software. Results are expressed as the mean±SEM, each conducted in triplicate. Statistical significance, compared with Ang II control: *p<0.05, **p<0.01, and ***p<0.001. NS: no significant difference. ND: not determined. FIGS. 1 to 5 show neurite outgrowth was inhibited by the AT2 receptor antagonists, PD-126,055 and compounds 6, 15, 21 and 28.

AT1 receptor, sequence (P30556 whole entry, species assumed): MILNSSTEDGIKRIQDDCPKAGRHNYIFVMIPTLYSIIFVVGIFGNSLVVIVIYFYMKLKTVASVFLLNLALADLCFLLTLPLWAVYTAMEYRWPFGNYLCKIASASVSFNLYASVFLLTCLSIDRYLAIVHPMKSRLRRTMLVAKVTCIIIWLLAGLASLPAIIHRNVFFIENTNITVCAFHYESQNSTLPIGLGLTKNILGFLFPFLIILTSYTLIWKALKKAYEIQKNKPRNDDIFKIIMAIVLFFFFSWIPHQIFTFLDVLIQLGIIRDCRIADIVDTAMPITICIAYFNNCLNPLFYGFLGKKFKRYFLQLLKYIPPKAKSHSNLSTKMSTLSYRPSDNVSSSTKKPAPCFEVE
AT2 receptor, sequence (P50052 whole entry, species assumed): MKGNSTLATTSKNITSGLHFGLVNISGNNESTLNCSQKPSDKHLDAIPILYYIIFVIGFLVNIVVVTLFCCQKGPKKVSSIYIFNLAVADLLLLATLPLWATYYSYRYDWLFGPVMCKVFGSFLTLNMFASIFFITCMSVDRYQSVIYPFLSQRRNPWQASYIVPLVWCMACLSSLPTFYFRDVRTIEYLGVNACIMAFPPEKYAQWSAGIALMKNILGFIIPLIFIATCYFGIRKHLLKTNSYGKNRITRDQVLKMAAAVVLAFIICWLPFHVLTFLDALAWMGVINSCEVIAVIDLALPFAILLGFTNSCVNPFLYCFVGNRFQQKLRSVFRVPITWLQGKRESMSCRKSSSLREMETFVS

For the molecule `CN(CCCc1ccccc1)[C@H]1C[C@@H](C(=O)O)N(C(=O)C(c2ccccc2)c2ccccc2)C1` [Compound 21, (2S,4S)-1-(2,2-diphenylacetyl)-4-(methyl(3-phenylpropyl)amino)pyrrolidine-2-carboxylic acid], the IC50 on AT2 receptor is 62.1 nM; at AT1 receptor it was above 10000 nM. The same molecule gave an inhibitory constant (Ki) on AT1 receptor above 10000 nM. In addition, the “neurite outgrowth (neurite average length)” value (“neurite outgrowth” below) in the assay on NG108-15 neurite cells is given as “inhibited”.

As for `O=C(O)[C@@H]1C[C@H](N2CCOC[C@@H]2Cc2ccccc2)CN1C(=O)C(c1ccccc1)c1ccccc1` [Compound 28, (2S,4S)-4-((S)-3-benzylmorpholino)-1-(2,2-diphenylacetyl)pyrrolidine-2-carboxylic acid], the IC50 at AT2 receptor was 86.9 nM. Besides, the “neurite outgrowth” value with NG108-15 neurite cells is “inhibited”.

On to `O=C(O)[C@@H]1C[C@H](CSCCc2ccccc2)CN1C(=O)C(c1ccccc1)c1ccccc1` [Compound 120, (2S,4S)-1-(2,2-diphenylacetyl)-4-((phenethylthio)methyl)pyrrolidine-2-carboxylic acid], for which the IC50 on AT2 receptor was 1200 nM.

Take `O=C(O)[C@@H]1C[C@H](CSCc2ccccc2)CN1C(=O)C(c1ccccc1)c1ccccc1` [Compound 121, (2S,4S)-4-((benzylthio)methyl)-1-(2,2-diphenylacetyl)pyrrolidine-2-carboxylic acid]: the 50% inhibitory concentration (IC50) on AT2 receptor stood at 57.7 nM.

At AT2 receptor, `O=C(O)[C@@H]1C[C@H](CSc2ccccc2)CN1C(=O)C(c1ccccc1)c1ccccc1` [Compound 122, (2S,4S)-1-(2,2-diphenylacetyl)-4-((phenylthio)methyl)pyrrolidine-2-carboxylic acid] yielded an IC50 of 143 nM.

At AT2 receptor, `O=C(O)[C@@H]1C[C@H](SCCCc2ccccc2)CN1C(=O)C(c1ccccc1)c1ccccc1` [Compound 124, (2S,4S)-1-(2,2-diphenylacetyl)-4-((3-phenylpropyl)thio)-pyrrolidine-2-carboxylic acid] displayed an IC50 of 363 nM.

Turning to `O=C(O)[C@@H]1C[C@H](S(=O)(=O)CCCc2ccccc2)CN1C(=O)C(c1ccccc1)c1ccccc1` [Compound 125, (2S,4S)-1-(2,2-diphenylacetyl)-4-((3-phenylpropyl)-sulfonyl)pyrrolidine-2-carboxylic acid], the IC50 on AT2 receptor amounted to 1240 nM.

The molecule `CN(CCOc1ccc(F)cc1)[C@H]1C[C@@H](C(=O)O)N(C(=O)C(c2ccccc2)c2ccccc2)C1` [Compound 126] yielded a half-maximal inhibitory concentration (IC50) at AT2 receptor of 20.5 nM.

For the molecule `O=C(O)[C@@H]1C[C@H](SCCc2ccccc2)CN1C(=O)C(c1ccccc1)c1ccccc1` [Compound 131, (2S,4S)-1-(2,2-diphenylacetyl)-4-(phenethylthio)pyrrolidine-2-carboxylic acid], the IC50 on AT2 receptor is 652 nM.

On AT2 receptor, `O=C(O)[C@@H]1C[C@H](SCCCc2ccc(F)cc2)CN1C(=O)C(c1ccccc1)c1ccccc1` [Compound 133, (2S,4S)-1-(2,2-diphenylacetyl)-4((3-(4-fluorophenyl)propyl)thio)pyrrolidine-2-carboxylic acid] had an IC50 of 1740 nM.

With `O=C(O)[C@@H]1C[C@H](S(=O)(=O)CCCc2ccc(F)cc2)CN1C(=O)C(c1ccccc1)c1ccccc1` [Compound 134, (2S,4S)-1-(2,2-diphenylacetyl)-4((3-(4-fluorophenyl)propyl)sulfonyl)pyrrolidine-2-carboxylic acid], the IC50 on AT2 receptor came out at 954 nM.

On to `CS(=O)(=O)NC(=O)[C@@H]1C[C@H](OCCCc2ccccc2)CN1C(=O)C(c1ccccc1)c1ccccc1` [Compound 135, (2S,4S)-1-(2,2-diphenylacetyl)-N-(methylsulfonyl)-4-(phenylpropoxy)pyrrolidine-2-carboxamide], for which the IC50 at AT2 receptor was found to be 240 nM.

With `O=C(O)[C@@H]1C=C(c2sccc2-c2ccccc2)CN1C(=O)C(c1ccccc1)c1ccccc1` [Compound 139, (S)-1-(2,2-diphenylacetyl)-4-(3-phenylthiophen-2-yl)-2,5-dihydro-1H-pyrrole-2-carboxylic acid], at AT2 receptor, the half-maximal inhibitory concentration (IC50) is 2530 nM.

`O=C(O)[C@@H]1C=C(C#CCCc2ccccc2)CN1C(=O)C(c1ccccc1)c1ccccc1` [Compound 140, (S)-1-(2,2-diphenylacetyl)-4-(4-phenylbut-1-yn-1-yl)-2,5-dihydro-1H-pyrrole-2-carboxylic acid] returned a half-maximal inhibitory concentration (IC50) at AT2 receptor of 674 nM.

At AT1 receptor, `COc1ccc2c(c1OCc1ccccc1)C[C@@H](C(=O)O)N(C(=O)C(c1ccccc1)c1ccccc1)C2` [PD-126,055, reference compound] had an IC50 above 10000 nM and an inhibition constant Ki above 10000 nM. The “neurite outgrowth” value with NG108-15 neurite cells is reported as “inhibited”.

These data come from patent US9624243B2, “Heterocyclic compounds and methods of their use” (Novartis AG, priority 2012, dated 2017).
